Experimental data reported in the kinase profiling compilation of Christmann-Franck et al. (2016).

Columns and labels:
Test in all cases: KINOMEscan competition binding
Conditions in all cases: compound 1.0 µM
[1] = target: CSNK2A1 (human) (UniProt P68400)
[2] = target: NEK1 (human) (UniProt Q96PY6)
[3] = target: CDK15 (human) (UniProt Q96Q40)
[4] = system: EGFR (human), P00533 [L858R]
[5] = target: CHEK2 (human) (UniProt O96017)
[6] = target: EPHB4 (human) (UniProt P54760)
[7] = target: PIK3C2G (human) (UniProt O75747)
[8] = system: ABL1 (human), P00519 [Y253F]
[9] = target: RET (human) (UniProt P07949)
[10] = target: GRK4 (human) (UniProt P32298)
[11] = target: MYLK3 (human) (UniProt Q32MK0)
[12] = target: STK17A (human) (UniProt Q9UEE5)
[13] = target: LTK (human) (UniProt P29376)
[14] = target: JAK1 JH1 catalytic (human) (UniProt P23458)
[15] = target: BTK (human) (UniProt Q06187)
[16] = target: PRKACA (human) (UniProt P17612)
[17] = target: CDK7 (human) (UniProt P50613)
[18] = target: SYK (human) (UniProt P43405)
[19] = target: PRKG1 (human) (UniProt Q13976)
[20] = target: RPS6KA1 KD1 (human) (UniProt Q15418)
[21] = target: PRKD3 (human) (UniProt O94806)
[22] = target: TNNI3K (human) (UniProt Q59H18)
[23] = system: FLT3 (human), P36888 [D835Y]
[24] = target: LYN (human) (UniProt P07948)
[25] = system: EIF2AK4 KD2 (human), Q9P2K8 [S808G]
[26] = target: BMP2K (human) (UniProt Q9NSY1)
[27] = target: DYRK1B (human) (UniProt Q9Y463)
[28] = target: PLK1 (human) (UniProt P53350)
[29] = target: TNIK (human) (UniProt Q9UKE5)
[30] = system: ABL1 (human), P00519 [M351T]
[31] = system: EGFR (human), P00533 [746-750 del]
[32] = target: PHKG2 (human) (UniProt P15735)
[33] = target: PHKG1 (human) (UniProt Q16816)
[34] = target: AAK1 (human) (UniProt Q2M2I8)
[35] = target: SIK3 (human) (UniProt Q9Y2K2)
[36] = target: NEK7 (human) (UniProt Q8TDX7)
[37] = target: AKT3 (human) (UniProt Q9Y243)
[38] = target: CDK13 (human) (UniProt Q14004)
[39] = target: MAPK10 (human) (UniProt P53779)
[40] = system: EGFR (human), P00533 [747-751 del / S ins]
[41] = target: STK32A (human) (UniProt Q8WU08)
[42] = target: STK10 (human) (UniProt O94804)
[43] = target: SRPK3 (human) (UniProt Q9UPE1)

Chain of NEK7 (human) (Q8TDX7 whole entry, looked up): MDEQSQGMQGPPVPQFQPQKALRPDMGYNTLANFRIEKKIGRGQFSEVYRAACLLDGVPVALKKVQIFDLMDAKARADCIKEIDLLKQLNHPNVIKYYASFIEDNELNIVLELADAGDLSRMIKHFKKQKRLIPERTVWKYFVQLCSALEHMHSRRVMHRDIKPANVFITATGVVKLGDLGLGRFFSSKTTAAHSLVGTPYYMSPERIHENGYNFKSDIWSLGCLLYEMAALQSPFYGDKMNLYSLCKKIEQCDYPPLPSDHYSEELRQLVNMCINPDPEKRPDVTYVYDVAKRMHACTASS
Chain of LYN (human) (P07948 whole entry, looked up): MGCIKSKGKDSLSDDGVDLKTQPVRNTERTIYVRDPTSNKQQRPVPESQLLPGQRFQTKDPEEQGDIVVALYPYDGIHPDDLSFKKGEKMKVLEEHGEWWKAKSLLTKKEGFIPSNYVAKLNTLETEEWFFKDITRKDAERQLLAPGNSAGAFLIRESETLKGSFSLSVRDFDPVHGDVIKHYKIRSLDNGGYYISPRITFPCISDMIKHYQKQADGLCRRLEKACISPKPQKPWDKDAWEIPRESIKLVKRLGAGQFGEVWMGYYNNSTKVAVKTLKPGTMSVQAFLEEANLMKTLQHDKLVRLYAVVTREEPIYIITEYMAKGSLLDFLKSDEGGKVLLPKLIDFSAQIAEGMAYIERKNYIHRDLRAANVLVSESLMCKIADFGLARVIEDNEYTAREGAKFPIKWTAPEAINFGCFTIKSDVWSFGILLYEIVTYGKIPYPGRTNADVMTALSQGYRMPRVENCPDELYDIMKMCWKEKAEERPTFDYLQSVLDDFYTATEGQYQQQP
Chain of CSNK2A1 (human) (P68400 whole entry, looked up): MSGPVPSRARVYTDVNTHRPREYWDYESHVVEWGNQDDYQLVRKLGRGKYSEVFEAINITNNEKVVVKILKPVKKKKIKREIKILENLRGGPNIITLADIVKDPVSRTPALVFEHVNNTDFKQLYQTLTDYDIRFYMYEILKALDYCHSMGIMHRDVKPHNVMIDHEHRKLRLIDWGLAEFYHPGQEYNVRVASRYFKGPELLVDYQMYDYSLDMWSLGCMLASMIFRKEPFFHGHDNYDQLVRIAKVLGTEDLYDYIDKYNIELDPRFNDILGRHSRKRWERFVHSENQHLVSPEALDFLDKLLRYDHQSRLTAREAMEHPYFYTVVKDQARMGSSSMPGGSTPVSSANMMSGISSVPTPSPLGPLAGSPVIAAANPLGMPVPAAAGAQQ
Chain of EIF2AK4 KD2 (human), Q9P2K8 [S808G] (Q9P2K8 whole entry S808G, looked up): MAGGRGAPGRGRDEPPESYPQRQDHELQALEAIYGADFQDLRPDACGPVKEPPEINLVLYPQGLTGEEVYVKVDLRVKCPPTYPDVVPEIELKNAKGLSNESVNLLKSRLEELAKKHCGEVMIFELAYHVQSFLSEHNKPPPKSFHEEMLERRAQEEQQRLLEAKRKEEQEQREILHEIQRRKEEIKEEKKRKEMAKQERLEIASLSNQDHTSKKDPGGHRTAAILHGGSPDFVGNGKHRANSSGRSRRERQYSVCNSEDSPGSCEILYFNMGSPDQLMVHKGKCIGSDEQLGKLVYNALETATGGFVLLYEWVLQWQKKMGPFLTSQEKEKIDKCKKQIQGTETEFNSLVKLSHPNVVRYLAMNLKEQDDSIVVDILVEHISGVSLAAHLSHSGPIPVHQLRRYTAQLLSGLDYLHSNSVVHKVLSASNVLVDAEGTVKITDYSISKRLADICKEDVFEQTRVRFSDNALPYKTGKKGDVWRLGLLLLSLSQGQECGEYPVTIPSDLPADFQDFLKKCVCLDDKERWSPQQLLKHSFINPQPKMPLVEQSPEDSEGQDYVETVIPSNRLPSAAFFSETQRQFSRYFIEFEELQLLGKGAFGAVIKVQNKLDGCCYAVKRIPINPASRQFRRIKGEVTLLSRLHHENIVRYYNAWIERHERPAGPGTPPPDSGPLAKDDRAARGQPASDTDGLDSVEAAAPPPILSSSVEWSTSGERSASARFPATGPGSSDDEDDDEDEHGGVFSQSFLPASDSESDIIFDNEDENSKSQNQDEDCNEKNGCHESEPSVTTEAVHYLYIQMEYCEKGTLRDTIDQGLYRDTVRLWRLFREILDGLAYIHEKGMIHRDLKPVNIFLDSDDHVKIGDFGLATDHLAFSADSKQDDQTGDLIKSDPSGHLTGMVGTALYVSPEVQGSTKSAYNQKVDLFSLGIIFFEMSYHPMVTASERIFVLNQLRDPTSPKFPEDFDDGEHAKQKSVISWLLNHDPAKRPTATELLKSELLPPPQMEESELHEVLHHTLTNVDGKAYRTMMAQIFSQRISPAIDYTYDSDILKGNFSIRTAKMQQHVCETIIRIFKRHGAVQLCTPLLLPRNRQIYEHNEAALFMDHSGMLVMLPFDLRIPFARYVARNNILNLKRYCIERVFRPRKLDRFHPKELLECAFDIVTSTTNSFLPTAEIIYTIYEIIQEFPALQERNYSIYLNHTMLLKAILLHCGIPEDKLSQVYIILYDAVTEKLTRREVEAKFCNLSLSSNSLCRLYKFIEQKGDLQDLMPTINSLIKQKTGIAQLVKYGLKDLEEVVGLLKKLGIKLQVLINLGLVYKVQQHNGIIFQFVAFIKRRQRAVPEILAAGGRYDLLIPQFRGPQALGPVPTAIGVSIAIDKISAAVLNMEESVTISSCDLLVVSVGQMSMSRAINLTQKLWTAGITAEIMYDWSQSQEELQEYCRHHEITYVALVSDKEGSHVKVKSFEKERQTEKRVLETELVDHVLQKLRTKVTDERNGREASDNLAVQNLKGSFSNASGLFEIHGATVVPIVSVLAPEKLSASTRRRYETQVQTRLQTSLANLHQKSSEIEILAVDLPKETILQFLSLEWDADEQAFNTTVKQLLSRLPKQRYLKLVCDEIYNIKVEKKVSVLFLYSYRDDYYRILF
Chain of CDK15 (human) (Q96Q40 whole entry, looked up): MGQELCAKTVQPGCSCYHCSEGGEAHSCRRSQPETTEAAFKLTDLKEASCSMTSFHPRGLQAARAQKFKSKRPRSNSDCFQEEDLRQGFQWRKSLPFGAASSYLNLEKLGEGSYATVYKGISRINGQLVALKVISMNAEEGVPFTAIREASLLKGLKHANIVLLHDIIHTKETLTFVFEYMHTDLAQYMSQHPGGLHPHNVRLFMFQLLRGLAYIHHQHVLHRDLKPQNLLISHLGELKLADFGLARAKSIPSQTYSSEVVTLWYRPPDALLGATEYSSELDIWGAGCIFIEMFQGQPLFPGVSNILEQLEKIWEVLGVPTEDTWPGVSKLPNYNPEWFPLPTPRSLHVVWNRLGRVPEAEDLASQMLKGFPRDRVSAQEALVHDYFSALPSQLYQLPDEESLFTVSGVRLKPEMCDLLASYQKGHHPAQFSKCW
Chain of CDK7 (human) (P50613 whole entry, looked up): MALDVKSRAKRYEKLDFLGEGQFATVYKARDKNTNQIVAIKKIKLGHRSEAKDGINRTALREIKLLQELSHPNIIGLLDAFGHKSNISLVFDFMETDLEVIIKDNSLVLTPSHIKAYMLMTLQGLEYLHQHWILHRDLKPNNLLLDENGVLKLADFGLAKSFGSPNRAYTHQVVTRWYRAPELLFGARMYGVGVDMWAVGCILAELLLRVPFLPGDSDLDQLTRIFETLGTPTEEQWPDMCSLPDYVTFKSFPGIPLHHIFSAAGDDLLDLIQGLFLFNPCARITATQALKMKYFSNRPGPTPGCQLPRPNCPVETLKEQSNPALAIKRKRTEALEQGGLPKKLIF
Chain of BTK (human) (Q06187 whole entry, looked up): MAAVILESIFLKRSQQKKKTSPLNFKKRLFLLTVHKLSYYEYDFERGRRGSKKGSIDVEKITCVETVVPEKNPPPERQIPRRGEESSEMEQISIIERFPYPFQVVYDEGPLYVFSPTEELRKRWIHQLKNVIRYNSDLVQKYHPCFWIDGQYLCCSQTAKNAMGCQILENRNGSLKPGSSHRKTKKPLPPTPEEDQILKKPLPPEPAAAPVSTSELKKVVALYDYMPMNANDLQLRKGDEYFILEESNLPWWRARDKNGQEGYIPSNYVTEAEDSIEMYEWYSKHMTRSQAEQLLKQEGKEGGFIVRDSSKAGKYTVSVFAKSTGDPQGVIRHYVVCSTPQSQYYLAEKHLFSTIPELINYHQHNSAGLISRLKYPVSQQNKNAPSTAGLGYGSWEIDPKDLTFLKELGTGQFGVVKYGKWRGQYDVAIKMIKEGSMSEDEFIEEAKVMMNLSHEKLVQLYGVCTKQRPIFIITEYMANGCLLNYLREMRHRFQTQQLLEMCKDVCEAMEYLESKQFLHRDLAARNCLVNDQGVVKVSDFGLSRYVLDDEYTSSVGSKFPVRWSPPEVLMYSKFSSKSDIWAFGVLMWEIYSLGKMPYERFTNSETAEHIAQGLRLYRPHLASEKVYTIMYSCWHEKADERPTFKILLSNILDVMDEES
Chain of RPS6KA1 KD1 (human) (Q15418 whole entry, looked up): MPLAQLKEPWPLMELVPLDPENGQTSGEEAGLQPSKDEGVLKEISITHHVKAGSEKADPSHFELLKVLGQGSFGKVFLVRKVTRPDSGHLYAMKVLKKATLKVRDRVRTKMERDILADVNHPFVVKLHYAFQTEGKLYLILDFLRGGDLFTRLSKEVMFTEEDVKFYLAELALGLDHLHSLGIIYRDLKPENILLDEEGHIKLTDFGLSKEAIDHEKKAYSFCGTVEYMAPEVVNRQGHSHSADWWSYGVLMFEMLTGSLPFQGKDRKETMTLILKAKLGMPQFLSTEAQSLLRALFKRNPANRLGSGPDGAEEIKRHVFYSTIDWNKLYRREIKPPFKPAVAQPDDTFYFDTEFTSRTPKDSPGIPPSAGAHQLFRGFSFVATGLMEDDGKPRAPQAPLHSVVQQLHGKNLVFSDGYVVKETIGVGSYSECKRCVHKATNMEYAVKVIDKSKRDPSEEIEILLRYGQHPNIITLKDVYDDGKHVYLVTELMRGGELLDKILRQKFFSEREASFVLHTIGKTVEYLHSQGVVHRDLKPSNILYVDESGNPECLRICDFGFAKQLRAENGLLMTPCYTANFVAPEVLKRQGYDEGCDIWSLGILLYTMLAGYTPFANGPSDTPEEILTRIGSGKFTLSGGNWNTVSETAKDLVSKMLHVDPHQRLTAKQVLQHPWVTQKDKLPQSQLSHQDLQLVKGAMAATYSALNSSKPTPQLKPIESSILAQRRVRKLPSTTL

COCCNCCCn1c(C(=O)CF)c(-c2ccc(C)cc2)c2c(N)ncnc21
kinase still bound, per cent of control [1]: 100% | kinase still bound, per cent of control [2]: 100% | kinase still bound, per cent of control [3]: 100% | kinase still bound, per cent of control [4]: 62% | kinase still bound, per cent of control [5]: 100% | kinase still bound, per cent of control [6]: 89% | kinase still bound, per cent of control [7]: 92% | kinase still bound, per cent of control [8]: 94% | kinase still bound, per cent of control [9]: 88% | kinase still bound, per cent of control [10]: 85% | kinase still bound, per cent of control [11]: 96% | kinase still bound, per cent of control [12]: 98% | kinase still bound, per cent of control [13]: 100% | kinase still bound, per cent of control [14]: 100% | kinase still bound, per cent of control [15]: 87% | kinase still bound, per cent of control [16]: 100% | kinase still bound, per cent of control [17]: 100% | kinase still bound, per cent of control [18]: 96% | kinase still bound, per cent of control [19]: 100% | kinase still bound, per cent of control [20]: 78% | kinase still bound, per cent of control [21]: 100% | kinase still bound, per cent of control [22]: 89% | kinase still bound, per cent of control [23]: 100% | kinase still bound, per cent of control [24]: 97% | kinase still bound, per cent of control [25]: 100% | kinase still bound, per cent of control [26]: 94% | kinase still bound, per cent of control [27]: 96% | kinase still bound, per cent of control [28]: 100% | kinase still bound, per cent of control [29]: 95% | kinase still bound, per cent of control [30]: 96% | kinase still bound, per cent of control [31]: 100% | kinase still bound, per cent of control [32]: 100% | kinase still bound, per cent of control [33]: 100% | kinase still bound, per cent of control [34]: 95% | kinase still bound, per cent of control [35]: 91% | kinase still bound, per cent of control [36]: 100% | kinase still bound, per cent of control [37]: 86% | kinase still bound, per cent of control [38]: 90% | kinase still bound, per cent of control [39]: 100% | kinase still bound, per cent of control [40]: 84% | kinase still bound, per cent of control [41]: 94% | kinase still bound, per cent of control [42]: 100% | kinase still bound, per cent of control [43]: 78%
